# US9855270B2, “Methods and compositions for modulating estrogen receptor mutants” (priority 2014, dated 2018)
# Where two headings read alike, the source gives them in different places.
# Legend:
# [1] = system: MCF-7 cells stably expressing ER-α mutants; conditions: 5 day proliferation assays; depending on the mutation and assay format
# Description: Potency and efficacy of ERM 1-3 were measured in vitro in ER dependent transcriptional reporter assays and viability assays of MCF-7 cells stably expressing ER-α mutants.
# (§1) MCF-7 Mutant ER-α Stable Cell Line Generation: MCF-7 cells stably expressing wild-type or ER-α mutants were generated by subcloning ESR1 wild-type and mutant cDNAs containing an amino terminal hemagglutinin tag into pCDH-EF1-MCS-(PGK-Puro) (referred to as EF1 HA-ER-α) and pCDH-UbC-MCS-EF1-Hygro (referred to as UbC HA-ER-α) (System Biosciences). The resulting plasmids, in addition to an empty vector negative control, were subsequently cotransfected into HEK293T cells with the pPACKH1 packaging plasmid mix (System Biosciences) according to the manufacturer's protocol. Four days post transfection lentiviral particles were purified from the cell medium, tiered and stored at −80° C. MCF-7 cells were transduced with the purified viral particles and stable cell lines were selected by growth in RPMI containing 10% FBS plus 1 μG/mL puromycin or 200 μG/mL hygromycin for pCDH-EF1-MCS-(PGK-Puro) and pCDH-UbC-MCS-EF1-Hygro, respectively.
# MCF-7 Stable Cell Line Viability: MCF-7 cells were enumerated with a hemacytometer adjusted to a concentration of 40,000 cells per mL in Phenol Free RPMI containing 10% CSS with NEAA and Sodium Pyruvate. 16 microliters of the cell suspension was added to each well of a 384 well tissue culture treated white clear bottom polystyrene plate (Corning) using a Matrix 16 channel electronic pipette. The cells were incubated overnight to allow the cells to adhere. […] The “average” of the relative luminescence units (RLUs) of the wells are considered to be the baseline value at time=zero. […] The relative luminescence units (RLUs) of each well were measured, and relative proliferation (fold) of each sample was determined as follows: (RLU sample−RLU background)/(RLU at T=0)=relative proliferation
# Potency and efficacy of ERM 4-23 were measured in vitro in ER dependent transcriptional reporter assays and viability assays of MCF-7 cells stably expressing ER-α mutants.
# [2] = system: MCF-7 cells stably expressing EF1 HA-ER-α Y537N; assay: cells; assay type: cell-based; parameters: Percent inhibition compared to vehicle: concentration or dose not given beside the values; conditions: for Percent inhibition compared to vehicle: 5-Day Incubation; for EC50: Homo sapiens, MCF7, EF1 HA-ER-α Y537N, read-out: Potency (EC50; nM)
# Excerpt: as §1
# (§2) MCF-7 Stable Cell Line Viability: MCF-7 cells were enumerated with a hemacytometer adjusted to a concentration of 40,000 cells per mL in Phenol Free RPMI containing 10% CSS with NEAA and Sodium Pyruvate. 16 microliters of the cell suspension was added to each well of a 384 well tissue culture treated white clear bottom polystyrene plate (Corning) using a Matrix 16 channel electronic pipette. The cells were incubated overnight to allow the cells to adhere. The following day, 16 microliters of Phenol Free RPMI containing 10% CSS with NEAA and Sodium Pyruvate was added to the wells of one plate, followed by 16 μL of CellTiter-Glo (Promega, Madison Wis.) luminescent cell viability reagent using a Matrix 16 channel electronic pipette. […] The “average” of the relative luminescence units (RLUs) of the wells are considered to be the baseline value at time=zero. In addition, a 10 point, 1:5 serial dilution in DMSO (Sigma-Aldrich) was performed using Matrix 12 channel electronic pipette, including DMSO only as […]. 4 μL of each dilution was then added to 196 μL of RPMI containing 10% CSS with NEAA and Sodium Pyruvate. 16 μL of medium containing compound was added to the cells at a final concentration ranging from 10 μM to 5 pM. Compound dilution in media and subsequent addition to cells were carried out using Matrix 12 channel electronic pipettes. After 5 day compound exposure, 16 μL of CellTiter-Glo (Promega, Madison Wis.) luminescent cell viability reagent was added to the cells using a Matrix 16 channel electronic pipette. CellTiter-Glo added to 32 μL of medium without cells was used to obtain a background value. […] The relative luminescence units (RLUs) of each well were measured, and relative proliferation (fold) of each sample was determined as follows: (RLU sample−RLU background)/(RLU at T=0)=relative proliferation
# (§3) The UbC promoter is reported by the manufacturer (System Biosciences) to express low to moderate RNA levels while the EF1 promoter expresses high levels (System Biosciences).
# [3] = system: MCF-7 cells stably expressing UbC HA-ER-α L536R; assay: cells; assay type: cell-based; parameters: Percent inhibition compared to vehicle: concentration or dose not given beside the values; conditions: for EC50: Homo sapiens, MCF7, UbC HA-ER-α L536R, read-out: Potency (EC50; nM); for Percent inhibition compared to vehicle / Efficacy (Emax): UbC HA-ER-α L536R; for Percent inhibition compared to vehicle: 5-Day Incubation; for Efficacy (Emax): Day 5 relative to Day 0
# Excerpt: as §1, §2, §3
# [4] = system: MCF-7 cells stably expressing UbC HA-ER-α L536P; assay: cells; assay type: cell-based; parameters: Percent inhibition compared to vehicle: concentration or dose not given beside the values; conditions: for EC50: Homo sapiens
# Excerpt: as §1, §2, §3
# [5] = system: MCF-7 cells stably expressing EF1 HA-ER-α L536R; assay: cells; assay type: cell-based; parameters: Percent inhibition compared to vehicle: concentration or dose not given beside the values; conditions: for Percent inhibition compared to vehicle / Efficacy (Emax): EF1 HA-ER-α L536R; for Percent inhibition compared to vehicle: 5-Day Incubation; for Efficacy (Emax): Day 5 relative to Day 0; for EC50: Homo sapiens, MCF7, EF1 HA-ER-α L536R, read-out: Potency (EC50; nM)
# Excerpt: as §1, §2, §3
# [6] = system: MCF-7 cells stably expressing EF1 HA-ER-α L536P; assay: cells; assay type: cell-based; parameters: Percent inhibition compared to vehicle: concentration or dose not given beside the values; conditions: for Percent inhibition compared to vehicle / Efficacy (Emax): EF1 HA-ER-α L536P; for Percent inhibition compared to vehicle: 5-Day Incubation; for Efficacy (Emax): Day 5 relative to Day 0; for EC50: Homo sapiens, MCF7, EF1 HA-ER-α L536P, read-out: Potency (EC50; nM)
# Excerpt: as §1, §2, §3
# [7] = system: MCF-7 cells stably expressing UbC HA-ER-α E380Q; assay: cells; assay type: cell-based; parameters: Percent inhibition compared to vehicle: concentration or dose not given beside the values; conditions: for EC50: Homo sapiens, MCF7, UbC HA-ER-α E380Q, read-out: Potency (EC50; nM); for Percent inhibition compared to vehicle / Efficacy (Emax): UbC HA-ER-α E380Q; for Percent inhibition compared to vehicle: 5-Day Incubation; for Efficacy (Emax): Day 5 relative to Day 0
# Excerpt: as §1, §2, §3
# [8] = system: MCF-7 cells stably expressing UbC HA-ER-α Y537N; assay: cells; assay type: cell-based; parameters: Percent inhibition compared to vehicle: concentration or dose not given beside the values; conditions: for EC50: Homo sapiens, MCF7, UbC HA-ER-α Y537N, read-out: Potency (EC50; nM); for Percent inhibition compared to vehicle / Efficacy (Emax): UbC HA-ER-α Y537N; for Percent inhibition compared to vehicle: 5-Day Incubation; for Efficacy (Emax): Day 5 relative to Day 0
# Excerpt: as §1, §2, §3
# [9] = system: MCF-7 cells stably expressing EF1 HA-ER-α E380Q; assay: cells; assay type: cell-based; parameters: Percent inhibition compared to vehicle: concentration or dose not given beside the values; conditions: for Percent inhibition compared to vehicle / Efficacy (Emax): EF1 HA-ER-α E380Q; for Percent inhibition compared to vehicle: 5-Day Incubation; for Efficacy (Emax): Day 5 relative to Day 0; for EC50: Homo sapiens, MCF7, EF1 HA-ER-α E380Q, read-out: Potency (EC50; nM)
# Excerpt: as §1, §2, §3
smiles,measurement,setting,value
"CC/C(=C(/c1ccc(/C=C/C(=O)O)cc1)c1ccc2[nH]ncc2c1)c1ccc(F)cc1Cl [Compound 1-3, (E)-3-(4-((E)-2-(2-chloro-4-fluorophenyl)-1-(1H-indazol-5-yl)but-1-en-1-yl)phenyl)acrylic acid]",reduced the number of viable cells (compared to DMSO control),[1],44%-78%
same,Percent inhibition compared to vehicle,"[2]; EF1 HA-ER-α Y537N, Agonist Mode, −E2",48%
same,Efficacy (Emax),"[2]; EF1 HA-ER-α Y537N, Agonist Mode, −E2, Day 5 relative to Day 0",3.11 ± 0.28
same,Percent inhibition compared to vehicle,"[2]; EF1 HA-ER-α Y537N, Antagonist Mode, +E2",44%
same,EC50,"[2]; Agonist Mode, −E2",97.3 ± 46.9 nM
same,EC50,"[2]; Antagonist Mode, +E2",125 ± 35.5 nM
same,EC50,"[3]; Agonist Mode, −E2",0.926 ± 0.428 nM
same,EC50,"[3]; Antagonist Mode, +E2",6.96 ± 3.76 nM
same,Percent inhibition compared to vehicle,"[3]; Agonist Mode, −E2",55%
same,Efficacy (Emax),"[3]; Agonist Mode, −E2",1.73 ± 0.22
same,Percent inhibition compared to vehicle,"[3]; Antagonist Mode, +E2",71%
same,Efficacy (Emax),"[3]; Antagonist Mode, +E2",1.71 ± 0.10
same,Percent inhibition compared to vehicle,"[4]; Agonist Mode, −E2, 5-Day Incubation",50%
same,Efficacy (Emax),"[4]; Agonist Mode, −E2, Day 5 relative to Day 0",1.58 ± 0.16
same,Percent inhibition compared to vehicle,"[4]; Antagonist Mode, +E2, 5-Day Incubation",72%
same,Efficacy (Emax),"[4]; Antagonist Mode, +E2, Day 5 relative to Day 0",1.69 ± 0.10
same,EC50,"[4]; MCF7, Agonist Mode, −E2, read-out: Potency (EC50; nM)",0.713 ± 0.487 nM
same,EC50,"[4]; MCF7, read-out: Potency (EC50; nM), Antagonist Mode, +E2",7.37 ± 3.93 nM
same,Percent inhibition compared to vehicle,"[5]; Agonist Mode, −E2",47%
same,Efficacy (Emax),"[5]; Agonist Mode, −E2",3.61 ± 0.24
same,Percent inhibition compared to vehicle,"[5]; Antagonist Mode, +E2",45%
same,Efficacy (Emax),"[5]; Antagonist Mode, +E2",3.77 ± 0.48
same,EC50,"[5]; Agonist Mode, −E2",10.4 ± 6.52 nM
same,EC50,"[5]; Antagonist Mode, +E2",15.6 ± 6.9 nM
same,Percent inhibition compared to vehicle,"[6]; Agonist Mode, −E2",57%
same,Efficacy (Emax),"[6]; Agonist Mode, −E2",3.54 ± 0.45
same,Percent inhibition compared to vehicle,"[6]; Antagonist Mode, +E2",59%
same,Efficacy (Emax),"[6]; Antagonist Mode, +E2",3.74 ± 0.53
same,EC50,"[6]; Agonist Mode, −E2",18.2 ± 3.29 nM
same,EC50,"[6]; Antagonist Mode, +E2",41.9 ± 8.25 nM
same,EC50,"[7]; Agonist Mode, −E2",1.3 ± 0.232 nM
same,EC50,"[7]; Antagonist Mode, +E2",8.38 ± 3.31 nM
same,Percent inhibition compared to vehicle,"[7]; Agonist Mode, −E2",59%
same,Efficacy (Emax),"[7]; Agonist Mode, −E2",1.74 ± 0.24
same,Percent inhibition compared to vehicle,"[7]; Antagonist Mode, +E2",76%
same,Efficacy (Emax),"[7]; Antagonist Mode, +E2",1.72 ± 0.38
same,EC50,"[8]; Agonist Mode, −E2",2.22 ± 0.55 nM
same,EC50,"[8]; Antagonist Mode, +E2",9.5 ± 3.61 nM
same,Percent inhibition compared to vehicle,"[8]; Agonist Mode, −E2",61%
same,Efficacy (Emax),"[8]; Agonist Mode, −E2",1.67 ± 0.15
same,Percent inhibition compared to vehicle,"[8]; Antagonist Mode, +E2",76%
same,Efficacy (Emax),"[8]; Antagonist Mode, +E2",1.56 ± 0.04
same,Percent inhibition compared to vehicle,"[9]; Agonist Mode, −E2",49%
same,Efficacy (Emax),"[9]; Agonist Mode, −E2",3.35 ± 0.07
same,Percent inhibition compared to vehicle,"[9]; Antagonist Mode, +E2",52%
same,Efficacy (Emax),"[9]; Antagonist Mode, +E2",3.00 ± 0.18
same,EC50,"[9]; Agonist Mode, −E2",18.6 ± 7.11 nM
same,EC50,"[9]; Antagonist Mode, +E2",76.2 ± 21.5 nM
